Columns and labels:
[1] = target: T1, hEP2 (Homo sapiens, UniProt P43116); assay: hEP2 flipr assay; type: cell-based
Source text: (§1) United States Patent Application Serial No. 11/553,143, filed on October 26, 2006, describes the methods used to obtain the in vitro data in the table below.

[2] = target: T1, hEP2; assay: hEP2 cAMP assay; type: cell-based
Source text: as §1

[3] = target: T1, hEP2; assay: hEP2 binding; details: read-out: hEP2 Kl
Source text: as §1

[4] = target: T2, hEP4 (Homo sapiens, UniProt P35408); assay: hEP4 flipr assay; type: cell-based
Source text: as §1

[5] = target: T2, hEP4; assay: hEP4 binding
Source text: as §1

T1 sequence (P43116 whole entry): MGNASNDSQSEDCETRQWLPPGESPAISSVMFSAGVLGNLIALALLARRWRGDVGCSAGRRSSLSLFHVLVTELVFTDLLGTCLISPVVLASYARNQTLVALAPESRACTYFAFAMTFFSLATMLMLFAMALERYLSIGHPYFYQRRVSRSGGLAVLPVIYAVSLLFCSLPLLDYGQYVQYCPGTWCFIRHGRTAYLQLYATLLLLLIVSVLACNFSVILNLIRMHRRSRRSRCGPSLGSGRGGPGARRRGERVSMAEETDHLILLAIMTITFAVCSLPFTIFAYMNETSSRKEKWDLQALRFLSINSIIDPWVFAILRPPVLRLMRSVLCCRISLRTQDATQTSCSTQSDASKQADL
T2 sequence (P35408 whole entry): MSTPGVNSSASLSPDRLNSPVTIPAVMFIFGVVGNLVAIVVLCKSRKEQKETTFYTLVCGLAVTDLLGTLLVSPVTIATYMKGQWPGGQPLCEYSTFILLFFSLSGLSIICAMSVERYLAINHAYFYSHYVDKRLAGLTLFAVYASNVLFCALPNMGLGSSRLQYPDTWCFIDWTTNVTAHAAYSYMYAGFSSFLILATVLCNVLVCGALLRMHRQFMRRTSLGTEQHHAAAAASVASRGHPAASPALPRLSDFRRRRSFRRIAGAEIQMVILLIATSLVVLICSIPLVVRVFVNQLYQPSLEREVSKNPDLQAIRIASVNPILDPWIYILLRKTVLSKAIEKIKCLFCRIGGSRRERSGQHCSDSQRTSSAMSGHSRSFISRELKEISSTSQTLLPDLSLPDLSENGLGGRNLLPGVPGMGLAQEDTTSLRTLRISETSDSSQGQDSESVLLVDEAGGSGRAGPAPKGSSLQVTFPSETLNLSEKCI

EC50 [1]: 424 nM
EC50 [2]: 4.8 nM
Ki [3]: 81 nM
EC50 [4]: > 10000 nM
Ki [5]: 1580 nM
SMILES: O=C(O)c1ccc(CCCC2=CC[C@@H](O)[C@@H]2COc2cc(Cl)cc(Cl)c2)s1 [Example 1, 5-{3[(4R,5S)-5-(3,5-Dichloro-phenoxymethyl)-4-hydroxy-cyclopent·1-enyl]-propyl}-thiophene-2-carboxylic acid]

Reference: EP2114875B1, “SUBSTITUTED ARYLCYLOPENTENES AS THERAPEUTIC AGENTS” (ALLERGAN, INC., priority 2007, dated 2008)
